This note sets out measurements from patent US20230338316A1, “ABBAPOLINS AS INHIBITORS AND DEGRADERS OF POLO-LIKE KINASES” (UNIVERSITY OF SOUTH CAROLINA, priority 2022, published 2023).

In one test the target is T1, PLK1 PBD (367-603) (Homo sapiens, UniProt P53350).
T1 construct: PLK1 PBD (367-603) and PLK3 PBD (335-646) proteins were obtained from BPS Biosciences Inc; purchased BPS Biosciences Inc. (San Diego, CA)
Briefly: Fluorescence polarization assay, PLK1 PBD. In kind it is binding. Conditions: fluorescence polarization; read-out: PLK1 PBD IC50. How it is done: (§1) Materials were dissolved in DMSO (10 mM) and diluted from 10 nM to 600 μM (maximum of 6% DMSO tolerance in the assay). PLK1 PBD (367-603) and PLK3 PBD (335-646) proteins were obtained from BPS Biosciences Inc. (San Diego, CA); 17 ng PLK1 and 156 ng PLK3 were used per reaction. The fluorescein-tracer phospho-peptides (MAGPMQS[pT]PLNGAKK (SEQ ID NO: 1) for PLK1, and GPLATS[pT]PKNG (SEQ ID NO: 2) for PLK3) were used at a final concentration of 10 nM. Incubation was carried out at room temperature for 45 minutes. Fluorescence was measured using a DTX 880 plate reader and Multimode Analysis software (Beckman Coulter, Brea, CA). The polarization values in millipolarization (mP) units were measured at an excitation wavelength of 488 nm and an emission wavelength of 535 nm. Each data point was performed in triplicate for every experiment, and experiments were performed at least three times. An IC50 value for each compound was calculated from linear regression analysis of the plots.

The target in the next test is T2, PLK3 PBD (335-646) (Homo sapiens, UniProt Q9H4B4).
T2 construct: PLK1 PBD (367-603) and PLK3 PBD (335-646) proteins were obtained from BPS Biosciences Inc; purchased BPS Biosciences Inc. (San Diego, CA)
T2 sequence (Q9H4B4 335-646): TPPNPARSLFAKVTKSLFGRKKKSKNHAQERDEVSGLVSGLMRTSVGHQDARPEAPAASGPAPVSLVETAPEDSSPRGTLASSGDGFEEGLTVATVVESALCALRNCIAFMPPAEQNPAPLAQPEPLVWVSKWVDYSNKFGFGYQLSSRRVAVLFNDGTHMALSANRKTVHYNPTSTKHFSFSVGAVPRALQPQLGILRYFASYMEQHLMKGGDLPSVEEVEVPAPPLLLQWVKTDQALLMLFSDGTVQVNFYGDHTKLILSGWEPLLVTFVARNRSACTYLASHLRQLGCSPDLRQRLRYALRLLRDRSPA
As to the kind of experiment: Fluorescence polarization assay, PLK3 PBD. In kind it is binding. How it is done:
as §1
On the technique in general: In fluorescence polarisation assays a small probe gives low polarisation when free and higher when bound to something large.

Test [1] concerns SH-SY5Y neuroblastoma cells overexpressing PLK1. Briefly: Cell viability assay in neuroblastoma cells. Conditions: Homo sapiens, SH-SY5Y. Format: cell-based. How it is done:
(§2) Abbapolin compounds activity was evaluated in neuroblastoma cells. […] Further, abbapolins induced PLK1 degradation in SH-SY5Y cells (FIG. 14-16).

In another test the test system is LOX IMVI. Briefly: Single dose cell viability assay, LOX IMVI. Format: cell-based. Conditions: single dose 25 μM, 48 hours. The method, then: (§3) Lead abbapolin compounds were tested in multiple cancer cell lines, including non-small cell lung cancer (NSCLC) cells, melanoma cells, colon cancer cells, central nervous system (CNS) cancer cells, prostate cancer cells, renal cancer cells, and breast cancer cells. Each of these cancer cells lines were sensitive to the lead abbapolin compounds in a cell viability assay, including 6184 (Table 3), 6277 (Table 4), 6279 (Table 5), 6355 (Table 6), 6359 (Table 7), 6369 (Table 8), and 6421 (Table 9).

The test system of the next test is HCT-15. As to the kind of experiment: Single dose cell viability assay, HCT-15. In kind it is cell-based. Conditions: HCT-15 (Colon), single dose 25 μM. How it is done: as §3
The next test concerns MOLT-4. Briefly: Single dose cell viability assay, MOLT-4. Format: cell-based. Particulars: MOLT-4 (Leukemia), single dose 25 μM. How it is done:
as §3

A further test has as its system NCI-H460. As to the kind of experiment: Single dose cell viability assay, NCI-H460. Format: cell-based. Conditions: NCI-H460 (NSCLC), single dose 25 μM. The method, then: as §3
For a further test, the system named is RPMI-8226. As to the kind of experiment: Single dose cell viability assay, RPMI-8226. Particulars: RPMI-8226 (Leukemia), single dose 25 μM. Format: cell-based. The method, then:
as §3

The subject of a further test is CCRF-CEM. Briefly: Single dose cell viability assay, CCRF-CEM. Format: cell-based. Conditions: CCRF-CEM (Leukemia), single dose 25 μM. The method, then: as §3
The test system of the next test is HCT-116. Briefly: Single dose cell viability assay, HCT-116. Conditions: HCT-116 (Colon), single dose 25 μM. Format: cell-based. The method, then:
as §3

In a further test the test system is K-562. Briefly: Single dose cell viability assay, K-562. Format: cell-based. Conditions: K-562 (Leukemia), single dose 25 μM. The method, then: as §3
The subject of another test is SR. Briefly: Single dose cell viability assay, SR. In kind it is cell-based. Conditions: SR (Leukemia), single dose 25 μM. The method, then:
as §3

In the next test the test system is A549/ATCC. Briefly: Single dose cell viability assay, A549/ATCC. Conditions: A549/ATCC (NSCLC), single dose 25 μM. In kind it is cell-based. How it is done:
as §3

The next test has as its target PLK1 (Homo sapiens, UniProt P53350). Briefly: PLK1 degradation in SH-SY5Y cells. In kind it is cell-based. On the set-up: endogenous in cells. How it is done: as §2
In a further test the test system is HOP-92. As to the kind of experiment: Single dose cell viability assay, HOP-92. Particulars: HOP-92 (NSCLC), single dose 25 μM. Format: cell-based. The method, then:
as §3

The next test has as its system SNB-19. Briefly: Single dose cell viability assay, SNB-19. In kind it is cell-based. Particulars: SNB-19 (CNS), single dose 25 μM. How it is done:
as §3

Another test deals with U251. Briefly: Single dose cell viability assay, U251. In kind it is cell-based. Conditions: U251 (CNS), single dose 25 μM. The method, then: as §3
For the next test, the system named is KM12. As to the kind of experiment: Single dose cell viability assay, KM12. In kind it is cell-based. Conditions: KM12 (Colon), single dose 25 μM. The method, then:
as §3

A further test deals with PC-3. Briefly: Single dose cell viability assay, PC-3. In kind it is cell-based. Conditions: PC-3 (Prostate), single dose 25 μM. The method, then:
as §3

Another test has as its system SF-295. Briefly: Single dose cell viability assay, SF-295. In kind it is cell-based. Conditions: SF-295 (CNS), single dose 25 μM. The method, then: as §3
The subject of a further test is NCI-H522. Briefly: Single dose cell viability assay, NCI-H522. In kind it is cell-based. Conditions: NCI-H522 (NSCLC), single dose 25 μM. The method, then: as §3
The next test relates to ACHN. Briefly: Single dose cell viability assay, ACHN. In kind it is cell-based. Particulars: ACHN (Renal), single dose 25 μM. The method, then: as §3
The subject of the next test is SK-MEL-2. Briefly: Single dose cell viability assay, SK-MEL-2. In kind it is cell-based. Conditions: SK-MEL-2 (Melanoma), single dose 25 μM. How it is done: as §3
For the next test, the system named is MDA-MB-468. Briefly: Single dose cell viability assay, MDA-MB-468. In kind it is cell-based. Conditions: MDA-MB-468 (Breast), single dose 25 μM. The method, then: as §3
The next test concerns SK-MEL-5. Briefly: Single dose cell viability assay, SK-MEL-5. Format: cell-based. Particulars: SK-MEL-5 (Melanoma), single dose 25 μM. How it is done: as §3
A further test concerns UACC-62. Briefly: Single dose cell viability assay, UACC-62. Format: cell-based. Conditions: UACC-62 (Melanoma), single dose 25 μM. The method, then: as §3
The test system of the next test is UO-31. Briefly: Single dose cell viability assay, UO-31. In kind it is cell-based. Conditions: UO-31 (Renal), single dose 25 μM. The method, then:
as §3

Another test relates to HL-60(TB). Briefly: Single dose cell viability assay, HL-60(TB). In kind it is cell-based. Conditions: HL-60(TB) (Leukemia), single dose 25 μM. How it is done: as §3
In a further test the test system is T-47D. Briefly: Single dose cell viability assay, T-47D. In kind it is cell-based. Conditions: T-47D (Breast), single dose 25 μM. How it is done: as §3
Another test has as its system MCF7. Briefly: Single dose cell viability assay, MCF7. In kind it is cell-based. Particulars: MCF7 (Breast), single dose 25 μM. How it is done: as §3
The subject of another test is EKVX. Briefly: Single dose cell viability assay, EKVX. Format: cell-based. Particulars: EKVX (NSCLC), single dose 25 μM. How it is done: as §3
For the next test, the system named is NCI-H23. As to the kind of experiment: Single dose cell viability assay, NCI-H23. Conditions: NCI-H23 (NSCLC), single dose 25 μM. In kind it is cell-based. How it is done:
as §3

In the next test the test system is NCI-H226. Briefly: Single dose cell viability assay, NCI-H226. In kind it is cell-based. Particulars: NCI-H226 (NSCLC), single dose 25 μM. How it is done:
as §3

T1 sequence (P53350 367-603): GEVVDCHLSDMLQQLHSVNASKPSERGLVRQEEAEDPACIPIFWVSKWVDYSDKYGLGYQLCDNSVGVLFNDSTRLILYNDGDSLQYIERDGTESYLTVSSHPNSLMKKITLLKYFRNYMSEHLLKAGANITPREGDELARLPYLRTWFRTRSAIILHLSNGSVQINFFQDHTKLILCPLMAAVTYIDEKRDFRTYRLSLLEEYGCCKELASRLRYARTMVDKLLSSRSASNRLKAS
PLK1, sequence (P53350 whole entry): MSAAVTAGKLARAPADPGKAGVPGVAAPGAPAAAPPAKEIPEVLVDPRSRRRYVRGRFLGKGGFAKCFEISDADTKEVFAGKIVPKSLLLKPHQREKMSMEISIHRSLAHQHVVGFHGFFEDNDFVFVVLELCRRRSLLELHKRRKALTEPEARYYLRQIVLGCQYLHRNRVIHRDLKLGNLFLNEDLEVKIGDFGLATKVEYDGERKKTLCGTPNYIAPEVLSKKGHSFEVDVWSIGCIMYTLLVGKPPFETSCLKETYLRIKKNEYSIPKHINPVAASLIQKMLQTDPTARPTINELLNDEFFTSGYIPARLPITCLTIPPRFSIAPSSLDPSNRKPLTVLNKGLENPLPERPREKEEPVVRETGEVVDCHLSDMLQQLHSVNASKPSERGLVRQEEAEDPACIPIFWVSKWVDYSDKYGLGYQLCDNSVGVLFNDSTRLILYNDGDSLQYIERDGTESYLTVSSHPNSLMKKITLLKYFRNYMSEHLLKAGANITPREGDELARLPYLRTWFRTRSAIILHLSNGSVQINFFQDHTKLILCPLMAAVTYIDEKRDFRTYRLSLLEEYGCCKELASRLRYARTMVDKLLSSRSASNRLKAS

Regarding `CCCCCCCCc1cccc(CC(=O)Nc2ccc(C)cc2C(=O)O)c1` [compound 6277], the IC50 at PLK1 PBD (367-603) was 19.7 µM; at PLK3 PBD (335-646), 29.4 µM; in [1], 5.25 ± 0.5 µM. This compound also displayed an inhibition at 25 µM in the test with LOX IMVI (Homo sapiens, LOX IMVI, from cells remaining) of 96.4%. Moreover, the “Cells Remaining (%)” value in the test with LOX IMVI (LOX IMVI (Melanoma)) is given as 3.4%; with HCT-15, 13.2%; with MOLT-4, 17.93%; in the test with NCI-H460, 20.45%; with RPMI-8226, 25.43%; in the test on CCRF-CEM, 26.74%. Further, the “Cells Remaining (%)” value is recorded as 28.14% in the test on HCT-116, 28.94% in the test with K-562, 31.08% with SR and 31.38% in the test on A549/ATCC. For the same compound, the PLK1 degradation result at PLK1 is given as “degradation of PLK1”.

Regarding `CCCCCCCCc1ccc(C(=O)Nc2ccc(C)cc2C(=O)O)cc1O` [compound 6279], at PLK1 PBD (367-603), the IC50 came to 31.8 µM. For the same compound, the “Cells Remaining (%)” value in the test with HOP-92 is recorded as 57.85%; in the test on HCT-15 it was 56.83%; in the test on RPMI-8226, 63.91%; in the test with CCRF-CEM, 55.59%; in the test on K-562, 49.7%; with SNB-19, 43.49%. Further, the “Cells Remaining (%)” value was determined as 45.14% in the test with U251; 52.19% with KM12; 58.63% in the test on PC-3; 59.38% in the test with SF-295; 59.89% with NCI-H522; 61.79% in the test with ACHN.

Take `CCCCCCCOc1cccc(S(=O)(=O)Nc2ccc(C)cc2C(=O)O)c1` [compound 6355]: the “Cells Remaining (%)” value stood at 57.02% in the test on HOP-92; 49.94% with HCT-15; 51.41% in the test with RPMI-8226; 67.09% in the test on CCRF-CEM; 64.99% in the test with U251; 59.2% in the test with SF-295. For the same compound, the “Cells Remaining (%)” value in the test with NCI-H522 was 65.09%; with SK-MEL-2, 30.01%; with MDA-MB-468 it was 55.12%; in the test with SK-MEL-5 it was 59.55%; in the test on UACC-62, 61.59%.

Turning to `CCCCCCCCc1ccc(C(=O)Nc2ccccc2O)cc1` [compound 6421], the “Cells Remaining (%)” value stood at 58.2% in the test with MOLT-4; 48.98% in the test with RPMI-8226; 37.43% with CCRF-CEM; 53.71% in the test with K-562; 70.52% with NCI-H522; 38.46% with SK-MEL-2. Besides, the “Cells Remaining (%)” value stood at 45.03% in the test on MDA-MB-468; 70.42% with SK-MEL-5; 69.99% in the test with UACC-62; 59.4% in the test with UO-31; 69.66% with HL-60(TB); 27.32% in the test with T-47D. Moreover, the “Cells Remaining (%)” value in the test on MCF7 worked out at 35.21%; in the test with EKVX, 52.89%; in the test on NCI-H23 it was 62.07%; in the test with NCI-H226 it was 66.21%.

In general, IC50 refers to the concentration that gives 50% inhibition. One may read the inhibition as the drop in the measured response relative to a control, in per cent. A high value points to strong suppression.
